Here are results for twelve molecules from patent US5663296A, “Hydroxamate inhibitors of endothelin converting enzyme” (Warner-Lambert Company, priority 1995, dated 1997).

For test [1], the target named is T1, endothelin converting enzyme (ECE) (Homo sapiens, UniProt P42892).
T1 sequence (P42892 1-770): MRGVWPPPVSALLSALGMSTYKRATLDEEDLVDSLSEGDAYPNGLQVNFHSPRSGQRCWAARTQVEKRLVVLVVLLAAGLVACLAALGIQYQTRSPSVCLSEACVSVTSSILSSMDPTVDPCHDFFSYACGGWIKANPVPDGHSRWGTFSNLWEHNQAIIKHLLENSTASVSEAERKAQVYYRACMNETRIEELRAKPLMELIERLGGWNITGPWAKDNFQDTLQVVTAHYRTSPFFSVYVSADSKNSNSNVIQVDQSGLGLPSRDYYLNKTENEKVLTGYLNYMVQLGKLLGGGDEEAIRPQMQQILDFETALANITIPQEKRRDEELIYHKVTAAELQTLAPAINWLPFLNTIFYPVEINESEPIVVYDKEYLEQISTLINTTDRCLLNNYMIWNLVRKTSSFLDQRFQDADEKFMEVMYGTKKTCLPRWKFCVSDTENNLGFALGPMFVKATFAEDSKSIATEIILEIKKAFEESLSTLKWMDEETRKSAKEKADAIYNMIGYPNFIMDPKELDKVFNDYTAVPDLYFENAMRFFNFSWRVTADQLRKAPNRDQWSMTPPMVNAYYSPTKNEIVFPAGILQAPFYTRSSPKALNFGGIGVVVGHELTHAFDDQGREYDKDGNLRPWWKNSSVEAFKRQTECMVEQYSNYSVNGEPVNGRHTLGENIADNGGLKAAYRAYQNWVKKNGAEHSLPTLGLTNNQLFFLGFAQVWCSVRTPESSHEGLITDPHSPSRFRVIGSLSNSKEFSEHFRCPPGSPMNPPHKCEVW
Description: ECE activity assay, ir-ET-1 formed from big ET measured by radioimmunoassay. The class given is biochemical. The procedure: ECE Activity Assay: The typical reaction mixture (50 μL) contained 10 μM big ET, 100 mM Hepes-KOH (pH 7.0), 0.25% Triton X-100, 0.01% NaN3, 0.2 mM phenylmethylsulfonyl fluoride, 50 μM pepstatin A, 0.1 mM leupeptin, the indicated concentration of compound (or DMSO for control), and the indicated amount of protein. The final DMSO concentration was kept at 3%. After incubation for 1.5 hours at 37° C., the reaction was stopped by the addition of EDTA to a final concentration of 10 mM. This final mixture was diluted (usually 100-fold) with the radioimmunoassay buffer (see below) and used for radioimmunoassay.
Radioimmunoassay (RIA): For the measurement of immunoreactive (ir) ET-1, the assay mixture (250 μL) contained the antibody against ET-1, an ET-1 sample, and [^125 I]ET-1 (7000 cpm) in the radioimmunoassay buffer (60 mM potassium phosphate (KPi), pH 7.4/10 mM, EDTA/8 mM, NaN3 /3% DMSO/0.1% bovine serum albumin/0.1% Tween 20). The order of the addition was ET-1 sample, followed by antibody, then [^125 I]ET-1. After incubation at 4° C. for 0.5 to 2 days, unbound ET-1 was co-precipitated by the addition of charcoal (2.4%, w/v)/dextran (0.24%, w/v) suspension (125 μL) in the RIA buffer with BSA replacedby gelatin (0.25%, w/v). The amount of ir-ET-1 was measured by counting the supernatant and determined from the standard curve. The cross-reactivity to big ET-1 was less than 0.01% and the detection limit was 1 Fmol.

The subject of test [2] is cultured vascular endothelial cells and smooth muscle cells. The conditions noted are these: cited from earlier work.
Test [3] concerns pressor response of big ET. Particulars: micromolar concentrations; in vitro and in vivo; cited from earlier work.
In a further test the test system is anaesthetized pigs. The conditions noted are these: cited from earlier work.
The next test has as its system allergic sheep. The conditions noted are these: cited from earlier work.
The next test deals with mouse. Particulars: mouse model of endotoxic shock; cited from earlier work.
The subject of test [4] is cultured bovine aortic endothelial cells. Particulars: intracellular accumulation; cited from earlier work.
Test [5] has as its system rats. Particulars: cited from earlier work.
Test [6] relates to rats. The conditions noted are these: cited from earlier work. This is another data set of the same source.

Where a name gives a salt, the structure may show the parent alone. *1 amine or outer side, *2 acyl side, *3 side chain or, on linkers, in order; H or OH if unused. Where a SMILES comes first, the peptide text is derived from it. [ ]: non-standard residue; d: D form. The star is where a group is joined. Trp(1-formyl) = O=Cn1cc(C[C@H](N[*:1])C(=O)[*:2])c2ccccc21; Sta = CC(C)C[C@H](N)[C@@H](O)CC(=O)O; Suc = O=C(CCC(=O)[*:2])[*:1]; Isovaleryl = CC(C)CC(=O)*; Aun = NCCCCCCCCCCC(=O)O; Boc = CC(C)(C)OC(=O)*; NHOH = ON*

Broadly, the IC50 is the concentration that inhibits the measured activity by half. For `CC[C@H](C)[C@H](NC(=O)CCC(=O)O)C(=O)N[C@H](C(=O)N[C@@H](Cc1c[nH]c2ccccc12)C(=O)NO)[C@@H](C)CC` [Example 10] (Suc-Ile-Ile-Trp-{NHOH}), in test [1] (read-out: IC50 (ECE inhibition)), the IC50 worked out at 4.7 µM. The term inhibition denotes the percentage by which the read-out fell short of the control. For the molecule `CC[C@H](C)[C@H](NC(=O)CCCCCCCCCCN)C(=O)N[C@H](C(=O)N[C@@H](Cc1c[nH]c2ccccc12)C(=O)NOCc1ccccc1)[C@@H](C)CC` [Example 12], in test [1] (read-out: % ECE Inhibition), the inhibition at 100 µM came out at 65%. In the case of `CC(C)C[C@H](NP(=O)(O)O[C@@H]1O[C@@H](C)[C@H](O)[C@@H](O)[C@H]1O)C(=O)N[C@@H](Cc1c[nH]c2ccccc12)C(=O)O` [phosphoramidon], the “intracellular conversion of big ET-1 to ET-1” value in [2] was “inhibit the intracellular conversion of big ET-1 to ET-1”. The “pressor response of big ET” value in test [3] is “block the pressor response of big ET”. In addition, in the test with anaesthetized pigs, the “plasma ET-1 level” value is recorded as “did not have any effect” and the “vasoconstrictor effects evoked by intravenous big ET-1” value is recorded as “inhibit vasoconstrictor effects”. In the case of `CC(C)C[C@@H]1NC(=O)[C@@H](C(C)C)NC(=O)[C@@H]2CCCN2C(=O)[C@@H](CC(=O)O)NC(=O)[C@@H](Cc2c[nH]c3ccccc23)NC1=O` [BQ-123] (cyclo(L[dW][dD]P[dV])), the “ET-1-induced bronchoconstriction and tracheal smooth muscle contraction” value in the test on allergic sheep was “block ET-1-induced bronchoconstriction and tracheal smooth muscle contraction”. For the same molecule, the survival rate result in the test on mouse is reported as “significantly increased the survival rate”. `CC[C@H](C)[C@H](NC(=O)CCCCCCCCCCN)C(=O)N[C@H](C(=O)N[C@@H](Cc1c[nH]c2ccccc12)C(=O)NO)[C@@H](C)CC` [Example 13] (H-[Aun]IIW-{NHOH}): in test [1] (read-out: % ECE Inhibition), the inhibition at 10 µM is 22% and the inhibition at 50 µM came to 57%. `CC(C)CC(=O)N[C@H](C(=O)N[C@H](C(=O)N[C@@H](CC(C)C)[C@@H](O)CC(=O)N[C@@H](C)C(=O)N[C@@H](CC(C)C)[C@@H](O)CC(=O)O)C(C)C)C(C)C` [pepstatin] (Isovaleryl-VV[Sta]A[Sta]-OH): in test [4], the ET-1 production result was “did not inhibit ET-1 production”. On to `COc1cccc(Oc2c(NS(=O)(=O)c3ccc(C(C)(C)C)cc3)ncnc2OCCO)c1` [RO 46-2005], for which the “efficacy in acute renal ischemia model” value in the test on rats [5] is “effective”. Further, the “efficacy in subarachnoid hemorrhage model” value in the test on rats [6] is listed as “effective”. Take “N-[(1,1-dimethylethoxy)-carbonyl]-L-α-aspartyl-L-isoleucyl-n-isoleucyl-1-formyl-N-hydroxy-n-tryptophanamide (Boc-DII[Trp(1-formyl)]-{NHOH}; not fully specified; printed as N-[(1,1-dimethylethoxy)-carbonyl]-L-α-aspartyl-L-isoleucyl-n-isoleucyl-1-formyl-N-hydroxy-n-tryptophanamide) [Example 22]”: the “% ECE Inhibition” value came out at 53% in test [1] (Conc. 10 μM), 73% in test [1] (Conc. 40 μM) and 87% in test [1] (Conc. 100 μM). For “N-[(1,1-dimethyl-ethoxy) carbonyl]-L-isoleucyl-N-hydroxy-L-tryptophanamide [Example 4]”, the “% ECE Inhibition” value in test [1] (Conc. 100 μM) is on record as 44%. For `CC[C@H](C)[C@H](N)C(=O)N[C@H](C(=O)N[C@@H](Cc1c[nH]c2ccccc12)C(=O)NO)[C@@H](C)CC` [Example 6, L-isoleucyl-L--isoleucyl-N-hydroxy-L-tryptophanamide, monohydrochloride] (H-Ile-Ile-Trp-{NHOH}), the inhibition at 100 µM in [1] (read-out: % ECE Inhibition) is 74%. As to “N-[(1,1-dimethyl-ethoxy) carbonyl]-L-isoleucyl-L-isoleuyl-N-hydroxy-D-tryptophanamide [Example 3]”, the “% ECE Inhibition” value in test [1] (Conc. 100 μM) was 46%.

As for `CC[C@H](C)[C@H](NC(=O)OC(C)(C)C)C(=O)N[C@H](C(=O)N[C@@H](Cc1c[nH]c2ccccc12)C(=O)NO)[C@@H](C)CC` [Example 2, N-[(1,1-dimethylethoxy)carbonyl]-L-isoleucyl-L-isoleucyl-N-hydroxy-L-tryptophanamide] (Boc-Ile-Ile-Trp-{NHOH}), the inhibition at 100 µM in test [1] (read-out: % ECE Inhibition) came out at 47%.
